Results published in patent US7314867B2, “Pharmaceutical composition comprising a retro-iverso isomer peptide” (priority 2002, dated 2008).
Entries after “also recorded” stand apart in the source; their conditions may differ.

Tested on: serum triglyceride levels in male ICR mice
Experiment: Oral administration of peptides to determine inhibition of serum triglyceride level elevation after olive oil feeding
Type: in vivo
Conditions: for Serum Triglyceride: male ICR mice fasted overnight, olive oil 250 mg by gastric intubation, peptide 1.0 mg/mouse orally one hour after lipid, blood collected after two hours; for % Decrease (serum triglyceride) / Activity in lowering elevated serum triglyceride levels compared with the corresponding natural reference peptide: male ICR mice, peptide 1.0 mg/mouse orally; for % Decrease (serum triglyceride): olive oil 250 mg, versus Olive Oil Only; for Activity in lowering elevated serum triglyceride levels compared with the corresponding natural reference peptide: olive oil load, comparison in words
Protocol: Olive oil (250 mg) was administered via gastric intubation to male ICR mice (6-week old, body weight: 20 g), which were fasted overnight. The peptides were dissolved in 0.1 ml saline solution and administered orally one hour after lipid administration. For the control group, 0.1 ml of saline solution was administered per mouse. After two hours, blood was collected from the orbital vein under ether anesthesia and the serum was separated by centrifugation (3000 rpm, 30 min, 1° C.). Serum triglyceride levels were assayed using commercially available methods (e.g. INFINITY (Registered Trade Mark) triglycerides reagent; Sigma Chemical Co.). The results were compared with L-Val-L-Val-L-Tyr-L-Pro (Reference Peptide 1), L-Val-L-Tyr-L-Pro (Reference Peptide 2), and L-Val-L-Thr-L-Leu (Reference Peptide 3) and shown in Table 1.

Substance	Serum Triglyceride [mg/100 ml]	% Decrease (serum triglyceride) [%]	Activity in lowering elevated serum triglyceride levels compared with the corresponding natural reference peptide	Activity in lowering elevated serum triglyceride levels compared with the corresponding natural reference peptide (listed as D-Leu D-Thr D-Val)
L-Val-L-Tyr-L-Pro [Ref. Peptide 2, reference compound]	407.7 ± 42.0	0	–	–
D-Leu D-Thr D-Val C-NH2 [Retro Inverso Polypeptide 3]	294.6 ± 33.8	28.7	higher activities in lowering elevated serum triglyceride levels than Reference 2 and 3, respectively	substantially exceed the activity of the corresponding natural oligopeptide
D-Pro D-Tyr D-Val C-NH2 [Retro Inverso Polypeptide 2]	231.8 ± 27.6	50.8	substantially exceed the activity of the corresponding natural oligopeptide	–
D-Pro D-Tyr D-Val D-Val C-NH2 [Retro Inverso Polypeptide 1]	313.7 ± 45.9	22.0	higher activities in lowering elevated serum triglyceride levels than Reference 2 and 3, respectively; also recorded: about half of Reference Peptide 1	–
L-Val-L-Thr-L-Leu [Ref. Peptide 3, reference compound]	352.7 ± 35.6	8.3	–	–
L-Val-L-Val-L-Tyr-L-Pro [Ref. Peptide 1, reference compound]	244.7 ± 25.5	46.3	–	–
